Values after ≈ are worked out from the molar mass of the structure shown. Where only a bound is given, the exact number is not on record here.

Usually solubility (kinetic) stands for the concentration staying in solution when a stock, usually in DMSO, is diluted into the medium.

The conditions of this data set: buffer; pH 7.4; 200.0 µM.
In the case of `O=C(CCCN1C(=O)c2cccnc2C1=O)Nc1ccccc1F`, the kinetic solubility came out at 46.4 µg/mL (≈ 142 µM).

`COc1cc([N+](=O)[O-])ccc1NC(=O)CN1CCCC1` returned a solubility (kinetic) of 37.2 µg/mL (≈ 133 µM). The compound `CC(C)c1ccc(C(=O)NCCCN2CCOCC2)cc1` returned a solubility (kinetic) of more than 43.6 µg/mL. The figure for `CCNCCNc1ccc([N+](=O)[O-])c2cccnc12` is 36.4 µg/mL (≈ 140 µM); for `O=C(COc1nncc2ccccc12)NCC(F)(F)F` it is more than 42.8 µg/mL. For `CC(C)C(C(=O)Nc1ccccc1F)N1C(=O)c2ccccc2C1=O` (stereo not drawn), the solubility (kinetic) was determined as 38.4 µg/mL (≈ 113 µM). Turning to `COc1ccc(C(=O)n2cc(C(C)=O)c3ccccc32)cc1`, the kinetic solubility stood at 1.3 µg/mL (≈ 4.43 µM). `CCN(c1ccccc1)S(=O)(=O)c1ccc(C(=O)Nc2cccc(NC(C)=O)c2)cc1`: the solubility (kinetic) is 3.7 µg/mL (≈ 8.46 µM). `CCNCC(=O)Nc1c(C)cccc1C`: the solubility (kinetic) was determined as 25.2 µg/mL (≈ 122 µM). Compared with the last compound, the solubility kinetic is about 6.8-fold higher.

Consider `C[n+]1ccccc1/C=N/O.[Cl-]`, for which the kinetic solubility is more than 25.9 µg/mL.

In the case of `CC(=O)Nc1ccc(NC(=O)c2ccc(Cl)nc2)cc1`, the solubility (kinetic) was more than 43.5 µg/mL. Turning to `COc1ccc(NC(=O)COc2ccccc2)cc1NC(=O)c1ccco1`, the solubility (kinetic) stood at 1.2 µg/mL (≈ 3.28 µM). `CCCCNC(=S)Nc1ccccc1Cc1ccccc1`: the solubility (kinetic) amounted to 32.5 µg/mL (≈ 109 µM). Take `Cc1[nH]c2ccc(C(=O)NCCN3CCCCCC3)cc2c1C`: the solubility (kinetic) was more than 47 µg/mL. The figure for `Cc1ccc(OCc2nc(-c3ccccc3)no2)cc1` is 0.4 µg/mL (≈ 1.5 µM); for `O=C(CC(=O)Nc1ccc(F)cc1)Nc1ccc(F)cc1` it is 3.1 µg/mL (≈ 10.7 µM). The compound `O=C(c1cc(-c2ccc(F)cc2)on1)N1CCOCC1` yielded a solubility (kinetic) of more than 41.4 µg/mL. For the compound `C(=C\c1ccncc1)/c1ccccc1`, the solubility (kinetic) turned out to be 11.2 µg/mL (≈ 61.8 µM). `CC(=O)Nc1ccc(S(=O)(=O)NCCN2CCNC2=O)cc1Cl`: the solubility (kinetic) was more than 54.1 µg/mL.

The compound `CC(=O)NCCc1ccc(C(=O)COC(=O)C2CCCCC2)cc1` yielded a solubility (kinetic) of 33.4 µg/mL (≈ 101 µM). As for `CC(=O)c1ccc(OCC(=O)NCc2ccc(F)cc2)cc1`, the solubility (kinetic) was more than 45.2 µg/mL. The figure for `O=C(NCC1CCCO1)C1CC(=O)N(c2ccc(Cl)cc2)C1` (stereo not drawn) is more than 48.4 µg/mL; for `CC(C)(C)OC(=O)NCCC(=O)N/N=C/c1cccc2cccnc12` it is more than 51.4 µg/mL; for `COc1ccc(NS(=O)(=O)c2ccc(C(=O)N(C)Cc3ccc(C)o3)cc2)cc1` it is 61.1 µg/mL (≈ 147 µM). Take `Cc1cc(C)c2nc(N3CCOCC3)c(C#N)cc2c1`: the kinetic solubility came out at 0.2 µg/mL (≈ 0.748 µM). `Cc1ccc(C2=NC3(CCCC3)NC2=S)cc1` showed a kinetic solubility of 2.2 µg/mL (≈ 9 µM). This solubility kinetic is about 11-fold higher than that of the compound before. In turn, `Cc1cc(C(=O)OCC(=O)NC(C)c2ccccc2)c(C)o1` (stereo not drawn) had a kinetic solubility of 17.7 µg/mL (≈ 58.7 µM). This solubility kinetic is about 8-fold higher than that of the compound before.

In turn, `COc1ccc(S(=O)(=O)NCCCn2ccnc2)cc1Cl` returned a kinetic solubility of more than 49.5 µg/mL.

As to `Cc1cc(=O)oc2cc(NC(=O)Cc3ccccc3)ccc12`, the solubility (kinetic) was determined as 1.1 µg/mL (≈ 3.75 µM). Next, `c1ccc2c3c(c(CN4CCCC4)cc2c1)COC3`: more than 38 µg/mL; `COc1ccc(CC(=O)NCC(C)(C)N2CCOCC2)cc1`: more than 46 µg/mL. As for `CC(=O)C1=C(O)C(=O)N(c2ccc(O)cc2)C1c1ccccc1` (stereo not drawn), the kinetic solubility was more than 46.4 µg/mL. `CN1CCCN(C(=O)CNC(=O)Cc2ccccc2)CC1` displayed a kinetic solubility of more than 43.4 µg/mL. For `CCn1cc(CCC(=O)NCc2ccccc2OC)c2ccccc21`, the solubility (kinetic) amounted to 30.5 µg/mL (≈ 90.7 µM). As to `COc1ccc2c(ccn2S(=O)(=O)c2ccccc2)c1`, the kinetic solubility was found to be 1.6 µg/mL (≈ 5.57 µM).

`CC1CN(C/C(=N\O)C23CC4CC(CC(C4)C2)C3)CC(C)O1` (stereo not drawn) registered a kinetic solubility of more than 46 µg/mL. The figure for `CNC(=O)N1c2ccccc2C=Cc2ccccc21` is more than 37.5 µg/mL; for `Cc1cc(N/C=C/C(=O)c2cccs2)ccc1F` it is 1.7 µg/mL (≈ 6.51 µM). In turn, `O=C(NC1CC1)c1cccc(NC(=O)c2cn3ccccc3n2)c1` returned a kinetic solubility of more than 48.1 µg/mL. Consider `Br.CC1CN2C(c3ccc(Cl)cc3)=CSC2=N1` (stereo not drawn), for which the solubility (kinetic) is more than 49.7 µg/mL.

As for `Cc1ccccc1NC(=O)CCN1CCN(C)CC1`, the kinetic solubility is more than 39.2 µg/mL. In turn, `Cc1ccc(C)c(NC(=O)CSc2cccc3cccnc23)c1` yielded a kinetic solubility of 2.2 µg/mL (≈ 6.82 µM). Compound `CCOc1ccc(-c2cnc(N)n2C)cc1` yielded a kinetic solubility of 31.8 µg/mL (≈ 146 µM). Next, `O=C(CCC(=O)c1cccs1)NCc1cccnc1`: more than 41.2 µg/mL; `CCOC(=O)c1cnc2c(C)cccc2c1Nc1cccc(C(=O)O)c1.Cl`: more than 58 µg/mL.

As to `CCOC(=O)N1CCN(c2ccnc3cc(Cl)ccc23)CC1`, the solubility (kinetic) was 43.9 µg/mL (≈ 137 µM). Consider `Cc1ccc(CCC(=O)NCc2ccccc2)o1`, for which the kinetic solubility is more than 36.5 µg/mL. `O=C(NCc1ccccc1F)c1ccc2ccccc2n1`: the kinetic solubility stood at 20.9 µg/mL (≈ 74.6 µM).

As for `CCCc1ccc2oc(C(=O)N3CCC(COC)C3)c(C)c2c1` (stereo not drawn), the solubility (kinetic) was 24.7 µg/mL (≈ 78.3 µM).

For `COc1ccccc1C1(CCNC(C)c2cccs2)CCOC(C(C)C)C1` (stereo not drawn), the kinetic solubility is 54.4 µg/mL (≈ 140 µM). `Fc1ccc(NC(=S)N2CCc3ccccc3C2)c(F)c1`: the solubility (kinetic) was found to be 37.3 µg/mL (≈ 123 µM). The solubility kinetic values of the last two compounds are within 1.5-fold of each other.

`Cc1ccnc(NC(=O)Cc2ccc(F)cc2)n1` showed a solubility (kinetic) of more than 36.8 µg/mL. `Cc1cc(C(=O)OCC(=O)NC2CC2)c2ccccc2n1` returned a kinetic solubility of more than 42.6 µg/mL.

The values are drawn from PubChem BioAssay AID1996.
